Reference: ChEMBL document CHEMBL4052645, “Discovery of potent and efficacious pyrrolopyridazines as dual JAK1/3 inhibitors” (Bioorg Med Chem Lett, 2017)

How the values were obtained:
[1] = molecular target: Serine/threonine-protein kinase NLK (Homo sapiens) (UniProt Q9UBE8); experiment: Inhibition of wild-type human full length NLK (M13 to E527 residues) expressed in bacterial expression system assessed as residual activity at 50 nM by Kinomescan method relative to control
[2] = molecular target: Serine/threonine-protein kinase 38 (Homo sapiens) (UniProt Q15208); experiment: Inhibition of wild-type human partial length NDR1 (N33 to E449 residues) expressed in mammalian expression system assessed as residual activity at 50 nM by Kinomescan method relative to control
[3] = molecular target: Platelet-derived growth factor receptor beta (Homo sapiens) (UniProt P09619); experiment: Inhibition of wild-type human partial length PDGFRB (V582 to Y1009 residues) expressed in bacterial expression system assessed as residual activity at 50 nM by Kinomescan method relative to control
[4] = molecular target: Tyrosine-protein kinase receptor TYRO3 (Homo sapiens) (UniProt Q06418); experiment: Inhibition of wild-type human partial length TYRO3 (S497 to T814 residues) expressed in bacterial expression system assessed as residual activity at 50 nM by Kinomescan method relative to control
Chain of Tyrosine-protein kinase receptor TYRO3 (Homo sapiens) (Q06418 whole entry, the tested form may be a part): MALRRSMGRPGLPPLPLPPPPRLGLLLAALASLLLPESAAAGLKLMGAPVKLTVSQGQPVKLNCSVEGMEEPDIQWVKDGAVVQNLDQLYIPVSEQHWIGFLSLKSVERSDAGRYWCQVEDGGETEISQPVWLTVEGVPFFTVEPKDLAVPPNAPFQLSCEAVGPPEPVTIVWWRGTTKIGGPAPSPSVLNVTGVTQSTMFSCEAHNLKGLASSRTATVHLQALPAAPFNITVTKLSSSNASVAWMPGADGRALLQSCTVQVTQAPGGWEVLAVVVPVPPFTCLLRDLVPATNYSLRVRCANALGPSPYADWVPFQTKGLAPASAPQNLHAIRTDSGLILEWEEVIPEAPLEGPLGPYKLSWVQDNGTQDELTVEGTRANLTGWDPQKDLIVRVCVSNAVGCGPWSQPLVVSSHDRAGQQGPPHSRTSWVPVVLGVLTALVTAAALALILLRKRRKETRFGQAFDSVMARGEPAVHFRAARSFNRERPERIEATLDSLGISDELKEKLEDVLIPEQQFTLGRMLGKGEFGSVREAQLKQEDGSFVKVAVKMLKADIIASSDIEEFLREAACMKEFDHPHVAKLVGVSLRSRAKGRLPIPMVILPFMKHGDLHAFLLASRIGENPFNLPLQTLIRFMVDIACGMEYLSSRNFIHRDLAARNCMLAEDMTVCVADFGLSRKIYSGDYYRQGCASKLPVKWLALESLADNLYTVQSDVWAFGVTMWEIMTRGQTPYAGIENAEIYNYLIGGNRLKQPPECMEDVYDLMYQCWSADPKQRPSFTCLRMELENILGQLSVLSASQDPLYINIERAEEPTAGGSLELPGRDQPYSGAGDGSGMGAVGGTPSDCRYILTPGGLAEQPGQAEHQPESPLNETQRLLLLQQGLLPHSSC

[5] = molecular target: Serine/threonine-protein kinase D1 (Homo sapiens) (UniProt Q15139); experiment: Inhibition of wild-type human partial length PKD1 (G551 to E870 residues) expressed in bacterial expression system assessed as residual activity at 50 nM by Kinomescan method relative to control
[6] = molecular target: Tyrosine-protein kinase JAK1 (Homo sapiens, UniProt P23458); experiment: Inhibition of GST-tagged JAK1 (unknown origin) after 3 hrs by Caliper assay
[7] = molecular target: SRSF protein kinase 2 (Homo sapiens) (UniProt P78362); experiment: Inhibition of wild-type human full length SRPK2 (M1 to S686 residues) expressed in bacterial expression system assessed as residual activity at 50 nM by Kinomescan method relative to control
[8] = molecular target: Tyrosine-protein kinase Mer (Homo sapiens) (UniProt Q12866); experiment: Inhibition of wild-type human partial length MER (R557 to L884 residues) expressed in bacterial expression system assessed as residual activity at 50 nM by Kinomescan method relative to control
Chain of Tyrosine-protein kinase Mer (Homo sapiens) (Q12866 whole entry, the tested form may be a part): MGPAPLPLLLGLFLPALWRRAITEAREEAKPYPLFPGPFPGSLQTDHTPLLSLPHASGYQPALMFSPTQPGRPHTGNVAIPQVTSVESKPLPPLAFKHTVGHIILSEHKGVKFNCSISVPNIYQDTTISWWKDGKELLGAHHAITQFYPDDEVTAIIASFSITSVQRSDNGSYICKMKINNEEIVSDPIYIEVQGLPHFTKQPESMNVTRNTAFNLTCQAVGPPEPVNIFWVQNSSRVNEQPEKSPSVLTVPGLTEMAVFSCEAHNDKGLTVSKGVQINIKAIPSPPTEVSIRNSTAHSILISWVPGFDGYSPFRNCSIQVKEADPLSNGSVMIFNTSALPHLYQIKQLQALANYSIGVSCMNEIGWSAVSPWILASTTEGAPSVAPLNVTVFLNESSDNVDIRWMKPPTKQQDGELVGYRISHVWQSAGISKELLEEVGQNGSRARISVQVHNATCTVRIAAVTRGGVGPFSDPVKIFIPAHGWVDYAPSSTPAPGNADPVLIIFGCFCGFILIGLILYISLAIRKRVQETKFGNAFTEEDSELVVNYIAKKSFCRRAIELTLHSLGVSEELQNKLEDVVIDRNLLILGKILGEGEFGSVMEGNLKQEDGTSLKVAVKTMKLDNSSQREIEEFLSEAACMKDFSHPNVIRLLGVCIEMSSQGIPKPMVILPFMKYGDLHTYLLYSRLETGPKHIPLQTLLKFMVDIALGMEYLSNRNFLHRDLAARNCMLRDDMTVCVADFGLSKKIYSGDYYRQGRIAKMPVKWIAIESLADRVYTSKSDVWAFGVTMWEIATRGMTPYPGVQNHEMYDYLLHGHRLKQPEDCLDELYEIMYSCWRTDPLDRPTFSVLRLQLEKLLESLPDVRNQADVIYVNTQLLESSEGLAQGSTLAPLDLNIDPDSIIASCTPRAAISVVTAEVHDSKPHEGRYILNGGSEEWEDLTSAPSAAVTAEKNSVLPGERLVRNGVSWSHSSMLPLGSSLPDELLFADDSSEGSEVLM

Homo sapiens = species on record: Homo sapiens; experiment: Inhibition of human partial length FLT3 ITD mutant expressed in bacterial expression system assessed as residual activity at 50 nM by Kinomescan method relative to control
[9] = molecular target: Activin receptor type-1-like (Homo sapiens) (UniProt P37023); experiment: Inhibition of wild-type human ALK1 (L164 to Q503 residues) expressed in bacterial expression system assessed as residual activity at 50 nM by Kinomescan method relative to control
[10] = molecular target: Leukocyte tyrosine kinase receptor (Homo sapiens) (UniProt P29376); experiment: Inhibition of wild-type human partial length LTK (P422 to S744 residues) expressed in bacterial expression system assessed as residual activity at 50 nM by Kinomescan method relative to control
[11] = molecular target: Inhibitor of nuclear factor kappa-B kinase subunit beta (Homo sapiens) (UniProt O14920); experiment: Inhibition of wild-type human full length IKK-beta (M1 to S756 residues) expressed in mammalian expression system assessed as residual activity at 50 nM by Kinomescan method relative to control
[12] = molecular target: Serine/threonine-protein kinase PAK 2 (Homo sapiens) (UniProt Q13177); experiment: Inhibition of wild-type human partial length PAK2 (P151 to R525 residues) expressed in bacterial expression system assessed as residual activity at 50 nM by Kinomescan method relative to control
[13] = molecular target: Serine/threonine-protein kinase DCLK3 (Homo sapiens) (UniProt Q9C098); experiment: Inhibition of wild-type human partial length DCAMKL3 (E140 to V628 residues) expressed in bacterial expression system assessed as residual activity at 50 nM by Kinomescan method relative to control
[14] = molecular target: Serine/threonine-protein kinase PLK2 (Homo sapiens) (UniProt Q9NYY3); experiment: Inhibition of wild-type human partial length PLK2 (H58 to F354 residues) expressed in mammalian expression system assessed as residual activity at 50 nM by Kinomescan method relative to control
[15] = molecular target: Misshapen-like kinase 1 (Homo sapiens) (UniProt Q8N4C8); experiment: Inhibition of wild-type human partial length MINK (M1 to K312 residues) expressed in mammalian expression system assessed as residual activity at 50 nM by Kinomescan method relative to control
[16] = molecular target: Casein kinase I isoform gamma-3 (Homo sapiens) (UniProt Q9Y6M4); experiment: Inhibition of wild-type human full length CK1G3 (M1 to K447 residues) expressed in bacterial expression system assessed as residual activity at 50 nM by Kinomescan method relative to control
Chain of Casein kinase I isoform gamma-3 (Homo sapiens) (Q9Y6M4 whole entry, looked up, the tested form may be a part, canonical isoform): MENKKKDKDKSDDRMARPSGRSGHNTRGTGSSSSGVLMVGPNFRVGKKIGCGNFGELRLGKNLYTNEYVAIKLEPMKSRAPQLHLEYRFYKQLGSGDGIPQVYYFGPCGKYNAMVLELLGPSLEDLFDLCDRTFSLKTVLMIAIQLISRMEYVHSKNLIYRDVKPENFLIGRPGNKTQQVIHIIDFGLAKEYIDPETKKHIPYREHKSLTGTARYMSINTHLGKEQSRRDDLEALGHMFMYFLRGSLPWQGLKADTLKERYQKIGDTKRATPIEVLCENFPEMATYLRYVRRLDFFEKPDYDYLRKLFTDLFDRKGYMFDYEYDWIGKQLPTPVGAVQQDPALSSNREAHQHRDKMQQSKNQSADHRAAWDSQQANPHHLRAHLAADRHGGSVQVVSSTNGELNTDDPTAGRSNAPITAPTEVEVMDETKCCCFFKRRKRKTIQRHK

[17] = molecular target: Ribosomal protein S6 kinase beta-1 (Homo sapiens) (UniProt P23443); experiment: Inhibition of wild-type human partial length P70S6K (M1 to S421 residues) expressed in mammalian expression system assessed as residual activity at 50 nM by Kinomescan method relative to control
Chain of Ribosomal protein S6 kinase beta-1 (Homo sapiens) (P23443 whole entry, looked up, the tested form may be a part): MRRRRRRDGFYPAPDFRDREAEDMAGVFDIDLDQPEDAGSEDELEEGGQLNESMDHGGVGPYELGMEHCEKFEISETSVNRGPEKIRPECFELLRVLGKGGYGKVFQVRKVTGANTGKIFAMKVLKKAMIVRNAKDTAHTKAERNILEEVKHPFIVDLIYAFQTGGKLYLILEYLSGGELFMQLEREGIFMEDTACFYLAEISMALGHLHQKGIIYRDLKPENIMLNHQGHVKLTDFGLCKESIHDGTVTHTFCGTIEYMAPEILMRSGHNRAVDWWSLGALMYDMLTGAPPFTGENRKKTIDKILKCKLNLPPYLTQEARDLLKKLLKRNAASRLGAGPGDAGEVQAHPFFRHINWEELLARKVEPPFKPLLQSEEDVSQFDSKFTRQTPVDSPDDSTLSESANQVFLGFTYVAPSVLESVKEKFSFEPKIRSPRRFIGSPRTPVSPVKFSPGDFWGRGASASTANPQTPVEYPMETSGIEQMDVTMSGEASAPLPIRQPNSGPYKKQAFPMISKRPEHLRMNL

[18] = molecular target: Mitogen-activated protein kinase kinase kinase 5 (Homo sapiens) (UniProt Q99683); experiment: Inhibition of wild-type human partial length MAP3K5 (E648 to S964 residues) expressed in bacterial expression system assessed as residual activity at 50 nM by Kinomescan method relative to control
[19] = molecular target: Dual specificity protein kinase TTK (Homo sapiens) (UniProt P33981); experiment: Inhibition of wild-type human partial length TTK (N505 to V798 residues) expressed in bacterial expression system assessed as residual activity at 50 nM by Kinomescan method relative to control
[20] = molecular target: Serine/threonine-protein kinase 17A (Homo sapiens) (UniProt Q9UEE5); experiment: Inhibition of wild-type human partial length DRAK1 (R32 to E363 residues) expressed in bacterial expression system assessed as residual activity at 50 nM by Kinomescan method relative to control
Chain of Serine/threonine-protein kinase 17A (Homo sapiens) (Q9UEE5 whole entry, the tested form may be a part): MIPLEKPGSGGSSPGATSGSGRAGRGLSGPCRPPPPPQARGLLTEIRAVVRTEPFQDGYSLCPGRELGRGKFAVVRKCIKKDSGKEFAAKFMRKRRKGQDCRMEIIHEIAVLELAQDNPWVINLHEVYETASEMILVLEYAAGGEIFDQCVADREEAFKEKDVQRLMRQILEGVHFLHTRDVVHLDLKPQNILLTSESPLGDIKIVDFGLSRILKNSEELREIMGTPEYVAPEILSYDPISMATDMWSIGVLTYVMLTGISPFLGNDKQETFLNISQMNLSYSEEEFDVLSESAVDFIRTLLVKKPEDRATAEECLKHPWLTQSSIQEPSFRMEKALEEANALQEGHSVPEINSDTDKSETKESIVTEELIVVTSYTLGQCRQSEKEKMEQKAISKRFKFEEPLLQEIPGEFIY

[21] = molecular target: Calcium/calmodulin-dependent protein kinase type II subunit beta (Homo sapiens) (UniProt Q13554); experiment: Inhibition of wild-type human partial length CAMK2B (M1 to Q380 residues) expressed in bacterial expression system assessed as residual activity at 50 nM by Kinomescan method relative to control
[22] = test system: Phosphatidylinositol 4,5-bisphosphate 3-kinase catalytic subunit alpha isoform (Homo sapiens), P42336 [E545A]; experiment: Inhibition of human partial length PIK3CA E545A mutant (R108 to N1068 residues) expressed in mammalian expression system assessed as residual activity at 50 nM by Kinomescan method relative to control
Chain of Phosphatidylinositol 4,5-bisphosphate 3-kinase catalytic subunit alpha isoform (Homo sapiens), P42336 [E545A] (P42336 whole entry E545A, the tested form may be a part, canonical isoform): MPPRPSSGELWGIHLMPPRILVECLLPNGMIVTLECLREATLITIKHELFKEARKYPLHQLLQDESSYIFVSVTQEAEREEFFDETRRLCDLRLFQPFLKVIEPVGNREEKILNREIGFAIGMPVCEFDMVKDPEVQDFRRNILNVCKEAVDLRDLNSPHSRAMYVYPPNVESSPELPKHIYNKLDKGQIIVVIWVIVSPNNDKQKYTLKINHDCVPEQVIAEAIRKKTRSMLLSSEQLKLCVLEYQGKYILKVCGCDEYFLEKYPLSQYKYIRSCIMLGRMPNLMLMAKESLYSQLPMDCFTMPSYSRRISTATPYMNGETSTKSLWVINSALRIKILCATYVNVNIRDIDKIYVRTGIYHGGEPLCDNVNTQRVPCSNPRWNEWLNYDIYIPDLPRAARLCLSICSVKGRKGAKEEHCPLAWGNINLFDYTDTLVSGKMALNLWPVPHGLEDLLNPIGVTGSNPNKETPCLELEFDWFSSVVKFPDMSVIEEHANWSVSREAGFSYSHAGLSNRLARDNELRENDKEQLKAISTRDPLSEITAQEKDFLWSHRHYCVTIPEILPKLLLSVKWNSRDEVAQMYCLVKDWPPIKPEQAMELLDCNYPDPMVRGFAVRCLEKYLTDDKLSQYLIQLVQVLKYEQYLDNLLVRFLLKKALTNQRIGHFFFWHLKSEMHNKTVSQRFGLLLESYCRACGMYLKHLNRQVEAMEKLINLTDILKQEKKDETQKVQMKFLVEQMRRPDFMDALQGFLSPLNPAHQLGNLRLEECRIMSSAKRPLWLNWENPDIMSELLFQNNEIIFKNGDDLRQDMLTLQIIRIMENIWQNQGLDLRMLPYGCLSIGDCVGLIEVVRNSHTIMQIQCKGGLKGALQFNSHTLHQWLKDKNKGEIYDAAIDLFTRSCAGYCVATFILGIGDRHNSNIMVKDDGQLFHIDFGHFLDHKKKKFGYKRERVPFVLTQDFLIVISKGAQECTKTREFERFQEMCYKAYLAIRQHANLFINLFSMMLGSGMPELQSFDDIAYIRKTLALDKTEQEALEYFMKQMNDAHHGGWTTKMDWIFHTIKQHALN

[23] = molecular target: NUAK family SNF1-like kinase 2 (Homo sapiens) (UniProt Q9H093); experiment: Inhibition of human NUAK2 (P22 to A333 residues) expressed in mammalian expression system assessed as residual activity at 50 nM by KINOMEscan assay relative to control
[24] = molecular target: Tyrosine-protein kinase Tec (Homo sapiens) (UniProt P42680); experiment: Inhibition of wild-type human partial length TEC (L341 to D620 residues) expressed in bacterial expression system assessed as residual activity at 50 nM by Kinomescan method relative to control

Chain of Serine/threonine-protein kinase NLK (Homo sapiens) (Q9UBE8 whole entry, the tested form may be a part): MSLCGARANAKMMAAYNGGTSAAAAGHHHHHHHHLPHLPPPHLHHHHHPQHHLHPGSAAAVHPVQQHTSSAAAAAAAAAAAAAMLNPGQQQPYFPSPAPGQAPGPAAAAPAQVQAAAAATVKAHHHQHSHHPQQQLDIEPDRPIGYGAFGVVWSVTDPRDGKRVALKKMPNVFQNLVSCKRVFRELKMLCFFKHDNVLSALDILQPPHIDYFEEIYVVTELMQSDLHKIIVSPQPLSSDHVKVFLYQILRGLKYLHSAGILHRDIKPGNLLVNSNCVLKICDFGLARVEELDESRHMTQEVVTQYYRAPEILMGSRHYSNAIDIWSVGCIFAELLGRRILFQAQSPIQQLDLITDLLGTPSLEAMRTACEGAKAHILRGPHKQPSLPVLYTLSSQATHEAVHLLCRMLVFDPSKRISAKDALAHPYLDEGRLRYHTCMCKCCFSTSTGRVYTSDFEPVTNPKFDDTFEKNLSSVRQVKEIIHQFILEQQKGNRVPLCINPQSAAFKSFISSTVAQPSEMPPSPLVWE

SMILES	Activity [1]	Activity [2]	Activity [3]	Activity [4]	Activity [5]	IC50 [6]	Activity [7]	Activity [8]	Activity (Homo sapiens)	Activity [9]	Activity [10]	Activity [11]	Activity [12]	Activity [13]	Activity [14]	Activity [15]	Activity [16]	Activity [17]	Activity [18]	Activity [19]	also measured
CC1(C)[C@H](Nc2c(C(N)=O)cnn3cc(-c4ccccc4)cc23)CC[C@]1(C)N	100%	92%	19%	100%	100%	0.4 nM	95%	100%	80%	100%	100%	73%	76%	39%	100%	100%	100%	96%	100%	100%	Activity [20]: 100%; Activity [21]: 78%; Activity [22]: 90%; Activity [23]: 2.7%; Activity [24]: 99%
COc1ccc(-c2cc3c(N[C@@H]4CC[C@](C)(N)C4(C)C)c(C(N)=O)cnn3c2)cn1	71%	99%	64%	89%	96%	1.9 nM	81%	100%	79%	100%	100%	100%	77%	64%	100%	96%	100%	97%	100%	81%	Activity [20]: 100%; Activity [21]: 92%; Activity [22]: 100%; Activity [23]: 7%; Activity [24]: 100%
